Test results taken from patent US7880007B2, “Bicyclic substituted phenyl piperidine modulators of muscarinic receptors” (Vertex Pharmaceuticals Incorporated, priority 2004, dated 2011).

Columns and labels:
Type in all cases: cell-based
[1] = molecular target: T1, M2 muscarinic receptor (Homo sapiens, UniProt P08172); experiment: Functional mobilization of intracellular calcium (FLIPR), M2-CHO cells; conditions: for Emax: 100% efficacy = maximum response obtained with the Carbachol control; for M2 Activity: M2-CHO cells, calcium mobilization (FLIPR)
T1 construct: expressed in transfected cells; host or cells: CHO (M2-CHO)
T1 sequence (P08172 1-466): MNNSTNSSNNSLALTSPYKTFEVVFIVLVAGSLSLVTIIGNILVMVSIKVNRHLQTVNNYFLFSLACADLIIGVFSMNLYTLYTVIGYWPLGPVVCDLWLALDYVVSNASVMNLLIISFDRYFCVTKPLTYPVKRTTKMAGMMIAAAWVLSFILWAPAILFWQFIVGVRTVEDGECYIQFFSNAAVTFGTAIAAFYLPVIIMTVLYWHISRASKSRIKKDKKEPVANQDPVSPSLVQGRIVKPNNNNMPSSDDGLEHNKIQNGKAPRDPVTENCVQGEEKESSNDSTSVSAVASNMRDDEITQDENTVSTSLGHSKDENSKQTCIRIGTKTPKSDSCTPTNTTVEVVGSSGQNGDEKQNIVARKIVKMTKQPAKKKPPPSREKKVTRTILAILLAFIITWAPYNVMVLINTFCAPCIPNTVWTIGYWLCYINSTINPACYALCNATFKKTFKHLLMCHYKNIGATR
Outline: (§1)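 Calcium mobilisation read by FLIPR over 60 s (ex 488/em 540 nm) in recombinant muscarinic CHO lines loaded with calcium dye plus 1 mM probenecid. Compounds tested as agonists alone, or as inhibitors against EC80 carbachol after 15 min pre-incubation or co-addition; 0.5% DMSO; efficacy scaled to carbachol maximal response.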

[2] = molecular target: T2, M4 muscarinic receptor (Homo sapiens, UniProt P08173); experiment: Functional mobilization of intracellular calcium (FLIPR), M4-CHO cells; conditions: for Emax: 100% efficacy = maximum response obtained with the Carbachol control; for M4 Activity: M4-CHO cells, calcium mobilization (FLIPR)
T2 construct: expressed in transfected cells; host or cells: CHO (M4-CHO)
T2 sequence (P08173 1-479): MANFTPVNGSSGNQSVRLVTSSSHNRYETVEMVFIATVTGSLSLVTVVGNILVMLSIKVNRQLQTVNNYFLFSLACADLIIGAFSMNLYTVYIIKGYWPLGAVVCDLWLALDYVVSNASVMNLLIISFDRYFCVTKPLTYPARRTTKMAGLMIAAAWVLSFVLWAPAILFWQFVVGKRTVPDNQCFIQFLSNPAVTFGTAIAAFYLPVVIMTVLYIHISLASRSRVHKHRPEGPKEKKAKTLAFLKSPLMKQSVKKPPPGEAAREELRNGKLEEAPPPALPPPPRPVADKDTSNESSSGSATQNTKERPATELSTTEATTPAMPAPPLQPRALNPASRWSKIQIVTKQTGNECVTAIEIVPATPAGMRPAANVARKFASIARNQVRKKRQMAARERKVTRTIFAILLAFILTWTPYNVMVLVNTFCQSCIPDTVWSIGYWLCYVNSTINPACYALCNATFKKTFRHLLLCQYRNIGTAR
Outline: as §1

[3] = molecular target: T3, M1 muscarinic receptor (Homo sapiens, UniProt P11229); experiment: Functional mobilization of intracellular calcium (FLIPR), M1-CHO cells; conditions: for Emax: 100% efficacy = maximum response obtained with the Carbachol control; for M1 Activity: M1-CHO cells, calcium mobilization (FLIPR)
T3 construct: expressed in transfected cells; host or cells: CHO (M1-CHO)
T3 sequence (P11229 1-460): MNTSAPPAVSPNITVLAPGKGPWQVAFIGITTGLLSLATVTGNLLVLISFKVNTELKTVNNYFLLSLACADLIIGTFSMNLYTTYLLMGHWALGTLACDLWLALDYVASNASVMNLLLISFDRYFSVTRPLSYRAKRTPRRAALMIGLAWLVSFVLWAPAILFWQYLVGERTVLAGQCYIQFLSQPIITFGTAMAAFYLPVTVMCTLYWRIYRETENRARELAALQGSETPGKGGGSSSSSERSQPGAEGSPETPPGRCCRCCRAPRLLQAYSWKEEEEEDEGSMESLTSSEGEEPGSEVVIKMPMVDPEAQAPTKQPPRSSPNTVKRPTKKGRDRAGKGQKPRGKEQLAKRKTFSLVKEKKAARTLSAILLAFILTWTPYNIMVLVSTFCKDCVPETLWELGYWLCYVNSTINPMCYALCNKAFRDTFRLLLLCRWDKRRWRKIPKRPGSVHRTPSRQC
Outline: as §1

[4] = molecular target: T4, M3 muscarinic receptor (Homo sapiens, UniProt P20309); experiment: Functional mobilization of intracellular calcium (FLIPR), M3-CHO cells; conditions: for Emax: 100% efficacy = maximum response obtained with the Carbachol control; for M3 Activity: M3-CHO cells, calcium mobilization (FLIPR)
T4 construct: expressed in transfected cells; host or cells: CHO (M3-CHO)
T4 sequence (P20309 whole entry): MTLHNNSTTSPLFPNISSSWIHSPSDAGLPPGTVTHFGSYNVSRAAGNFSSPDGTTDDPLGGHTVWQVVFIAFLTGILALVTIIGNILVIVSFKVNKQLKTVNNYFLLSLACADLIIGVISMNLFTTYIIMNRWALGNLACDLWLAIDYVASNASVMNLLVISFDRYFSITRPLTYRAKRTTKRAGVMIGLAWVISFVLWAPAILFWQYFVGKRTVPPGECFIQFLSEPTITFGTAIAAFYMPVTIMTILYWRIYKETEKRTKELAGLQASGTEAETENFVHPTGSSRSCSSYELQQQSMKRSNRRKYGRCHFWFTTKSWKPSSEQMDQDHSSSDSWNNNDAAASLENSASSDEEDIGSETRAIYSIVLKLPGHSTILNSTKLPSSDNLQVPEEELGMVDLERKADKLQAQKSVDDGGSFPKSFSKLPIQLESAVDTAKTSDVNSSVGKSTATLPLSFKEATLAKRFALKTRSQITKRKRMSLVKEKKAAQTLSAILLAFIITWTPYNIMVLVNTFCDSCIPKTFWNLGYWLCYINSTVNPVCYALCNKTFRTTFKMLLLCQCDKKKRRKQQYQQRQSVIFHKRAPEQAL
Outline: as §1

Emax [1] [%] | Emax [2] [%] | Emax [3] [%] | Emax [4] [%] | Structure (SMILES) | M2 Activity [1] | M4 Activity [2] | M1 Activity [3] | M3 Activity [4]
< 25 | 25 to 100 | < 25 | < 25 | CNC(=O)c1ccc(-c2ccc(OC)c(C3CCN(C4CC5CCC(C5)C4)CC3)c2)cc1 (stereo not drawn) [Compound 196] | + (activity was measured to be greater than 5.0 μM) | +++ (activity was measured to be less than 1.0 μM) | + (activity was measured to be greater than 5.0 μM) | + (activity was measured to be greater than 5.0 μM)
< 25 | < 25 | < 25 | < 25 | COc1ccccc1C1CCN(C2CCCC3(CCCCC3)C2)CC1 (stereo not drawn) [Compound 199] | + (activity was measured to be greater than 5.0 μM) | + (activity was measured to be greater than 5.0 μM) | + (activity was measured to be greater than 5.0 μM) | + (activity was measured to be greater than 5.0 μM)
25 to 100 | 25 to 100 | 25 to 100 | < 25 | COc1ccc(F)cc1C1CCN(C2CCCCC2)CC1 [Compound 200] | ++ (activity was measured to be from 1.0 μM to 5.0 μM) | +++ (activity was measured to be less than 1.0 μM) | +++ (activity was measured to be less than 1.0 μM) | + (activity was measured to be greater than 5.0 μM)
25 to 100 | 25 to 100 | 25 to 100 | < 25 | Fc1ccc(F)c(C2CCN(C3C[C@H]4CC[C@H]3C4)CC2)c1 (stereo partly drawn) [Compound 205] | ++ (activity was measured to be from 1.0 μM to 5.0 μM) | +++ (activity was measured to be less than 1.0 μM) | ++ (activity was measured to be from 1.0 μM to 5.0 μM) | + (activity was measured to be greater than 5.0 μM)
< 25 | 25 to 100 | < 25 | < 25 | COc1ccc(-c2cc(F)ccc2F)cc1C1CCN([C@H]2C[C@H]3CC[C@H]2C3)CC1 [Compound 206] | + (activity was measured to be greater than 5.0 μM) | + (activity was measured to be greater than 5.0 μM) | + (activity was measured to be greater than 5.0 μM) | + (activity was measured to be greater than 5.0 μM)
< 25 | 25 to 100 | 25 to 100 | < 25 | COc1ccc(F)cc1C1CCN(C2CC3CCC(C3)C2)CC1 (stereo not drawn) [Compound 207] | + (activity was measured to be greater than 5.0 μM) | +++ (activity was measured to be less than 1.0 μM) | +++ (activity was measured to be less than 1.0 μM) | + (activity was measured to be greater than 5.0 μM)
25 to 100 | 25 to 100 | 25 to 100 | < 25 | COc1ccc(Cl)cc1C1CCN(C2CC3CCC2C3)CC1 (stereo not drawn) [Compound 209, 1-(bicyclo[2.2.1]heptan-2-yl)-4-(5-chloro-2-methoxyphenyl)-piperidine] | ++ (activity was measured to be from 1.0 μM to 5.0 μM) | +++ (activity was measured to be less than 1.0 μM) | ++ (activity was measured to be from 1.0 μM to 5.0 μM) | + (activity was measured to be greater than 5.0 μM)

Continued, molecule first:

Structure (SMILES) | Emax [1] [%] | Emax [2] [%] | Emax [3] [%] | Emax [4] [%] | M2 Activity [1] | M4 Activity [2] | M1 Activity [3] | M3 Activity [4]
CCOC(=O)N1CCC(CN2CCC(O)(c3cc(F)ccc3OC)CC2)CC1 [Compound 189] | < 25 | 25 to 100 | 25 to 100 | < 25 | + (activity was measured to be greater than 5.0 μM) | +++ (activity was measured to be less than 1.0 μM) | +++ (activity was measured to be less than 1.0 μM) | + (activity was measured to be greater than 5.0 μM)
COc1ccc(-c2ccc(CC#N)cc2)cc1C1CCN(C2C[C@H]3CC[C@H]2C3)CC1 (stereo partly drawn) [Compound 190] | < 25 | 25 to 100 | < 25 | < 25 | + (activity was measured to be greater than 5.0 μM) | + (activity was measured to be greater than 5.0 μM) | + (activity was measured to be greater than 5.0 μM) | + (activity was measured to be greater than 5.0 μM)
COc1ccc(-c2ccc(C(C)(C)C#N)cc2)cc1C1CCN(C2CCOCC2)CC1 [Compound 192] | < 25 | 25 to 100 | 25 to 100 | < 25 | + (activity was measured to be greater than 5.0 μM) | + (activity was measured to be greater than 5.0 μM) | + (activity was measured to be greater than 5.0 μM) | + (activity was measured to be greater than 5.0 μM)
COc1ccc(F)cc1C1CCN(C2CCOCC2)CC1 [Compound 193] | 25 to 100 | 25 to 100 | 25 to 100 | < 25 | + (activity was measured to be greater than 5.0 μM) | +++ (activity was measured to be less than 1.0 μM) | ++ (activity was measured to be from 1.0 μM to 5.0 μM) | + (activity was measured to be greater than 5.0 μM)
c1ccc(C2CCN([C@H]3C[C@H]4CC[C@H]3C4)CC2)c(-c2ccc3c(c2)OCO3)c1 [Compound 195] | < 25 | 25 to 100 | 25 to 100 | < 25 | + (activity was measured to be greater than 5.0 μM) | +++ (activity was measured to be less than 1.0 μM) | + (activity was measured to be greater than 5.0 μM) | + (activity was measured to be greater than 5.0 μM)
COc1ccccc1C1(O)CCN([C@H]2C[C@H]3CC[C@H]2C3)CC1O (stereo partly drawn) [Compound 197] | < 25 | 25 to 100 | < 25 | < 25 | + (activity was measured to be greater than 5.0 μM) | + (activity was measured to be greater than 5.0 μM) | + (activity was measured to be greater than 5.0 μM) | + (activity was measured to be greater than 5.0 μM)
CCOC(=O)N1C2CCC1CC(N1CCC(c3cc(F)cc(F)c3OC)CC1)C2 (stereo not drawn) [Compound 198] | < 25 | 25 to 100 | 25 to 100 | < 25 | + (activity was measured to be greater than 5.0 μM) | +++ (activity was measured to be less than 1.0 μM) | ++ (activity was measured to be from 1.0 μM to 5.0 μM) | + (activity was measured to be greater than 5.0 μM)
CCOC(=O)N1C2CCC1CC(N1CCC(c3ccccc3OC)CC1)C2 (stereo not drawn) [Compound 202] | 25 to 100 | 25 to 100 | 25 to 100 | < 25 | ++ (activity was measured to be from 1.0 μM to 5.0 μM) | +++ (activity was measured to be less than 1.0 μM) | +++ (activity was measured to be less than 1.0 μM) | + (activity was measured to be greater than 5.0 μM)
